# In patent US12495798B2, “Nicotinamide compound and herbicidal composition comprising compound” (KOREA RESEARCH INSTITUTE OF CHEMICAL TECHNOLOGY, priority 2019, dated 2025):
# Legend:
# Format in all cases: in vivo
# cotton [1] = assay: Phytotoxicity test for field crops (soil treatment test); design: key: 0 (no harm); 9 (complete withered)
# How it was run: (§1)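 Crops sown in fertilized sterile soil (pH 6.1; clay 21%, silt 17%, sand 52%); soil spray 1 d later, 19˜300 g a.i./ha, 100 ml/m^2; greenhouse 30±5° C, 14/10 h; visual phytotoxicity 0–9 at 10 and 20 DAT vs untreated.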
# wheat [2] = assay: as above; design: key: 0 (no harm); 9 (complete withered)
# How it was run: as §1
# soybean [3] = assay: as above; design: key: 0 (no harm); 9 (complete withered)
# How it was run: as §1
# corn [4] = assay: as above; design: key: 0 (no harm); 9 (complete withered)
# How it was run: as §1
# rice [5] = assay: as above; design: key: 0 (no harm); 9 (complete withered)
# How it was run: as §1
# quack grass = assay: Herbicidal activity test against upland field weeds (soil treatment test); design: key to Soil treatment herbicidal activity, quack grass: 0 (no control); 100 (complete control); details: 50 g ai/ha, scale 0 (no control) to 100 (complete control)
# How it was run: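 Pre-emergence soil surface spray, day after sowing, into sandy loam pots with fertilizer; compounds at 50 or 75 g a.i./ha in 50% acetone, 0.1% Tween-20. Greenhouse at 30±5 °C, 14/10 h light/dark; visual control rated 0–100 against untreated after 14 days (21 if needed).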
# cotton [6] = assay: Phytotoxicity test for upland field crops (foliar treatment test); design: key: 0 (no harm); 9 (complete withered)
# How it was run: (§2)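 Crops grown in greenhouse pots (30±5 °C, 14/10 h light) were foliar-sprayed with compound at 19–300 g a.i./ha in 33% acetone/0.1% Tween-20. Phytotoxicity scored 0 (no harm) to 9 (complete withering) versus untreated control at 7 and 14 days, 21 if needed.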
# wheat [7] = assay: as above; design: key: 0 (no harm); 9 (complete withered)
# How it was run: as §2
# soybean [8] = assay: as above; design: key: 0 (no harm); 9 (complete withered)
# How it was run: as §2
# corn [9] = assay: as above; design: key: 0 (no harm); 9 (complete withered)
# How it was run: as §2
# rice [10] = assay: as above; design: key: 0 (no harm); 9 (complete withered)
# How it was run: as §2
# [11] = 50 g ai/ha, Cotton (10 days after treatment)
# [12] = 50 g ai/ha, Cotton (20 days after treatment)
# [13] = 100 g ai/ha, Cotton (10 days after treatment)
# [14] = 100 g ai/ha, Cotton (20 days after treatment)
# [15] = 50 g ai/ha, Wheat (10 days after treatment)
# [16] = 100 g ai/ha, Wheat (10 days after treatment)
# [17] = 100 g ai/ha, Wheat (20 days after treatment)
# [18] = 50 g ai/ha, Soybean (10 days after treatment)
# [19] = 50 g ai/ha, Soybean (20 days after treatment)
# [20] = 100 g ai/ha, Soybean (10 days after treatment)
# [21] = 100 g ai/ha, Soybean (20 days after treatment)
# [22] = 50 g ai/ha, Corn (10 days after treatment)
# [23] = 50 g ai/ha, Corn (20 days after treatment)
# [24] = 100 g ai/ha, Corn (10 days after treatment)
# [25] = 100 g ai/ha, Corn (20 days after treatment)
# [26] = 50 g ai/ha, Rice (10 days after treatment)
# [27] = 50 g ai/ha, Rice (20 days after treatment)
# [28] = 100 g ai/ha, Rice (10 days after treatment)
# [29] = 100 g ai/ha, Rice (20 days after treatment)
# [30] = 50 g ai/ha, Cotton (7 days after treatment)
# [31] = 50 g ai/ha, Cotton (14 days after treatment)
# [32] = 100 g ai/ha, Cotton (7 days after treatment)
# [33] = 100 g ai/ha, Cotton (14 days after treatment)
# [34] = 50 g ai/ha, Wheat (7 days after treatment)
# [35] = 50 g ai/ha, Wheat (14 days after treatment)
# [36] = 100 g ai/ha, Wheat (7 days after treatment)
# [37] = 100 g ai/ha, Wheat (14 days after treatment)
# [38] = 50 g ai/ha, Soybean (7 days after treatment)
# [39] = 50 g ai/ha, Soybean (14 days after treatment)
# [40] = 100 g ai/ha, Soybean (7 days after treatment)
# [41] = 100 g ai/ha, Soybean (14 days after treatment)
# [42] = 50 g ai/ha, Corn (7 days after treatment)
# [43] = 50 g ai/ha, Corn (14 days after treatment)
# [44] = 100 g ai/ha, Corn (7 days after treatment)
# [45] = 100 g ai/ha, Corn (14 days after treatment)
# [46] = 50 g ai/ha, Rice (7 days after treatment)
# [47] = 50 g ai/ha, Rice (14 days after treatment)
# [48] = 100 g ai/ha, Rice (7 days after treatment)
# [49] = 100 g ai/ha, Rice (14 days after treatment)
compound,measurement,setting,value
"Cn1nnc(COCc2nc(C(F)(F)Cl)ccc2C(=O)Nc2nnnn2C)n1 [Compound No. 2-78, 6-(chlorodifluoromethyl)-N-(1-methyl-1H-tetrazol-5-yl)-2-(((2-methyl-2H-tetrazol-5-yl)methoxy)methyl)nicotinamide]","Soil treatment phytotoxicity, Cotton",cotton [1]; [11],2
same,"Soil treatment phytotoxicity, Cotton",cotton [1]; [12],6.5
same,"Soil treatment phytotoxicity, Cotton",cotton [1]; [13],3
same,"Soil treatment phytotoxicity, Cotton",cotton [1]; [14],9
same,"Soil treatment phytotoxicity, Wheat",wheat [2]; [15],0
same,"Soil treatment phytotoxicity, Wheat","wheat [2]; 50 g ai/ha, Wheat (20 days after treatment)",0
same,"Soil treatment phytotoxicity, Wheat",wheat [2]; [16],0
same,"Soil treatment phytotoxicity, Wheat",wheat [2]; [17],0
same,"Soil treatment phytotoxicity, Soybean",soybean [3]; [18],0
same,"Soil treatment phytotoxicity, Soybean",soybean [3]; [19],0
same,"Soil treatment phytotoxicity, Soybean",soybean [3]; [20],0
same,"Soil treatment phytotoxicity, Soybean",soybean [3]; [21],0
same,"Soil treatment phytotoxicity, Corn",corn [4]; [22],0
same,"Soil treatment phytotoxicity, Corn",corn [4]; [23],0
same,"Soil treatment phytotoxicity, Corn",corn [4]; [24],1
same,"Soil treatment phytotoxicity, Corn",corn [4]; [25],0
same,"Soil treatment phytotoxicity, Rice",rice [5]; [26],6
same,"Soil treatment phytotoxicity, Rice",rice [5]; [27],6
same,"Soil treatment phytotoxicity, Rice",rice [5]; [28],9
same,"Soil treatment phytotoxicity, Rice",rice [5]; [29],9
same,"Soil treatment herbicidal activity, quack grass",quack grass,0
same,"Foliar treatment phytotoxicity, Cotton",cotton [6]; [30],5
same,"Foliar treatment phytotoxicity, Cotton",cotton [6]; [31],9
same,"Foliar treatment phytotoxicity, Cotton",cotton [6]; [32],6
same,"Foliar treatment phytotoxicity, Cotton",cotton [6]; [33],9
same,"Foliar treatment phytotoxicity, Wheat",wheat [7]; [34],0
same,"Foliar treatment phytotoxicity, Wheat",wheat [7]; [35],0
same,"Foliar treatment phytotoxicity, Wheat",wheat [7]; [36],0
same,"Foliar treatment phytotoxicity, Wheat",wheat [7]; [37],0
same,"Foliar treatment phytotoxicity, Soybean",soybean [8]; [38],5
same,"Foliar treatment phytotoxicity, Soybean",soybean [8]; [39],5
same,"Foliar treatment phytotoxicity, Soybean",soybean [8]; [40],6
same,"Foliar treatment phytotoxicity, Soybean",soybean [8]; [41],6
same,"Foliar treatment phytotoxicity, Corn",corn [9]; [42],2
same,"Foliar treatment phytotoxicity, Corn",corn [9]; [43],1
same,"Foliar treatment phytotoxicity, Corn",corn [9]; [44],3
same,"Foliar treatment phytotoxicity, Corn",corn [9]; [45],1
same,"Foliar treatment phytotoxicity, Rice",rice [10]; [46],5
same,"Foliar treatment phytotoxicity, Rice",rice [10]; [47],4
same,"Foliar treatment phytotoxicity, Rice",rice [10]; [48],6
same,"Foliar treatment phytotoxicity, Rice",rice [10]; [49],5
"Cn1ncnc1COCc1nc(C(F)(F)F)ccc1C(=O)Nc1nnnn1C [Compound No. 1-102, 2-(((1-methyl-1H-1,2,4-triazol-5-yl)methoxy)methyl)-N-(1-methyl-1H-tetrazol-5-yl)-6-(trifluoromethyl)nicotinamide]","Soil treatment phytotoxicity, Cotton",cotton [1]; [11],0
same,"Soil treatment phytotoxicity, Cotton",cotton [1]; [12],0
same,"Soil treatment phytotoxicity, Cotton",cotton [1]; [13],1
same,"Soil treatment phytotoxicity, Cotton",cotton [1]; [14],2
same,"Soil treatment phytotoxicity, Wheat",wheat [2]; [15],0
same,"Soil treatment phytotoxicity, Wheat",wheat [2]; [16],0
same,"Soil treatment phytotoxicity, Wheat",wheat [2]; [17],0
same,"Soil treatment phytotoxicity, Soybean",soybean [3]; [18],0
same,"Soil treatment phytotoxicity, Soybean",soybean [3]; [19],0
same,"Soil treatment phytotoxicity, Soybean",soybean [3]; [20],0
same,"Soil treatment phytotoxicity, Soybean",soybean [3]; [21],0
same,"Soil treatment phytotoxicity, Corn",corn [4]; [22],0
same,"Soil treatment phytotoxicity, Corn",corn [4]; [23],0
same,"Soil treatment phytotoxicity, Corn",corn [4]; [24],0
same,"Soil treatment phytotoxicity, Corn",corn [4]; [25],0
same,"Soil treatment phytotoxicity, Rice",rice [5]; [26],5
same,"Soil treatment phytotoxicity, Rice",rice [5]; [27],5
same,"Soil treatment phytotoxicity, Rice",rice [5]; [28],5
same,"Soil treatment phytotoxicity, Rice",rice [5]; [29],6
same,"Soil treatment herbicidal activity, quack grass",quack grass,0
same,"Foliar treatment phytotoxicity, Cotton",cotton [6]; [30],4
same,"Foliar treatment phytotoxicity, Cotton",cotton [6]; [31],8
same,"Foliar treatment phytotoxicity, Cotton",cotton [6]; [32],5
same,"Foliar treatment phytotoxicity, Cotton",cotton [6]; [33],9
same,"Foliar treatment phytotoxicity, Wheat",wheat [7]; [34],2
same,"Foliar treatment phytotoxicity, Wheat",wheat [7]; [35],2
same,"Foliar treatment phytotoxicity, Wheat",wheat [7]; [36],3
same,"Foliar treatment phytotoxicity, Wheat",wheat [7]; [37],3
same,"Foliar treatment phytotoxicity, Soybean",soybean [8]; [38],5
same,"Foliar treatment phytotoxicity, Soybean",soybean [8]; [39],8
same,"Foliar treatment phytotoxicity, Soybean",soybean [8]; [40],6
same,"Foliar treatment phytotoxicity, Soybean",soybean [8]; [41],9
same,"Foliar treatment phytotoxicity, Corn",corn [9]; [42],6
same,"Foliar treatment phytotoxicity, Corn",corn [9]; [43],6
same,"Foliar treatment phytotoxicity, Corn",corn [9]; [44],6
same,"Foliar treatment phytotoxicity, Corn",corn [9]; [45],8
same,"Foliar treatment phytotoxicity, Rice",rice [10]; [46],6
same,"Foliar treatment phytotoxicity, Rice",rice [10]; [47],8
same,"Foliar treatment phytotoxicity, Rice",rice [10]; [48],7
same,"Foliar treatment phytotoxicity, Rice",rice [10]; [49],9
